Source: patent US20070208085A1 (SOMANTA LIMITED, priority 2006, published 2007)
Read-outs that look alike come from different tables or passages of the source.

How the values were obtained:
[1] = test system: NCI-H226; test: NCI human cell line panel cytotoxicity; assay type: cell-based; details: NSCLC
Method: (§1) To identify the activity of the compound of formula IV in additional cell lines, an NCI human cell line panel was screened for sensitivity to the compound. Cytotoxicity was evaluated for chloroethylaminoanthraquinone compounds synthesized as described in EXAMPLE 1, using an in vitro cell based assay as described in Pors et al., Mol. Cancer Ther., 2:607-610 (2003).
(§2) Human tumor cell lines from the NCI human cell line panel (Table 2) were tested in the assay.
(§3) Growth inhibition was determined, and was expressed as the concentration (nM) required to inhibit cell growth by 50% (IG50). […] In particular, excellent activity was observed against CNS, colon, NSCLC and renal cancer cell lines. […] Standard methods were used for MTT results (Monks A et. al., J. Natl Cancer Inst. 1991 June 5;83(11):757-66).

[2] = test system: ACHN; test: NCI human cell line panel cytotoxicity; assay type: cell-based; details: Renal
Method: as §1, §2, §3

[3] = test system: HT-29; test: NCI human cell line panel cytotoxicity; assay type: cell-based; details: Colon
Method: as §1, §2, §3

[4] = test system: RPMI 8226; test: NCI human cell line panel cytotoxicity; assay type: cell-based; details: Leuk
Method: as §1, §2, §3

[5] = test system: KM 12; test: NCI human cell line panel cytotoxicity; assay type: cell-based; details: KM12, Colon
Method: as §1, §2, §3

[6] = test system: A549/ATCC; test: NCI human cell line panel cytotoxicity; assay type: cell-based; details: NSCLC
Method: as §1, §2, §3

[7] = test system: HS 578T; test: NCI human cell line panel cytotoxicity; assay type: cell-based; details: Breast
Method: as §1, §2, §3

[8] = test system: SK MEL 5; test: NCI human cell line panel cytotoxicity; assay type: cell-based; details: Melanoma
Method: as §1, §2, §3

[9] = test system: SF 268; test: NCI human cell line panel cytotoxicity; assay type: cell-based; details: CNS
Method: as §1, §2, §3

[10] = test system: HCT-116; test: NCI human cell line panel cytotoxicity; assay type: cell-based; details: Colon
Method: as §1, §2, §3

[11] = test system: NCI-H460; test: NCI human cell line panel cytotoxicity; assay type: cell-based; details: NSCLC
Method: as §1, §2, §3

[12] = test system: EKVX; test: NCI human cell line panel cytotoxicity; assay type: cell-based; details: NSCLC
Method: as §1, §2, §3

[13] = test system: BT549; test: NCI human cell line panel cytotoxicity; assay type: cell-based; details: BT-549, Breast
Method: as §1, §2, §3

[14] = test system: MDA-MB-231/ATCC; test: NCI human cell line panel cytotoxicity; assay type: cell-based; details: Breast
Method: as §1, §2, §3

[15] = test system: MDA-MB-435; test: NCI human cell line panel cytotoxicity; assay type: cell-based; details: Breast
Method: as §1, §2, §3

[16] = test system: 786-0; test: NCI human cell line panel cytotoxicity; assay type: cell-based; details: Renal
Method: as §1, §2, §3

[17] = test system: U251; test: NCI human cell line panel cytotoxicity; assay type: cell-based; details: U-251, CNS
Method: as §1, §2, §3

[18] = test system: LOX IMVI; test: NCI human cell line panel cytotoxicity; assay type: cell-based; details: Melanoma
Method: as §1, §2, §3

[19] = test system: NCI-H322M; test: NCI human cell line panel cytotoxicity; assay type: cell-based; details: NSCLC
Method: as §1, §2, §3

[20] = test system: DU145; test: NCI human cell line panel cytotoxicity; assay type: cell-based; details: DU-145, Prostate
Method: as §1, §2, §3

[21] = test system: SN12C; test: NCI human cell line panel cytotoxicity; assay type: cell-based; details: Renal
Method: as §1, §2, §3

[22] = test system: TK10; test: NCI human cell line panel cytotoxicity; assay type: cell-based; details: TK-10, Renal
Method: as §1, §2, §3

[23] = test system: HCT-15; test: NCI human cell line panel cytotoxicity; assay type: cell-based; details: Colon
Method: as §1, §2, §3

[24] = test system: UACC-257; test: NCI human cell line panel cytotoxicity; assay type: cell-based; details: Melanoma
Method: as §1, §2, §3

[25] = test system: UACC-62; test: NCI human cell line panel cytotoxicity; assay type: cell-based; details: Melanoma
Method: as §1, §2, §3

[26] = test system: SF 539; test: NCI human cell line panel cytotoxicity; assay type: cell-based; details: CNS
Method: as §1, §2, §3

[27] = test system: PC3; test: NCI human cell line panel cytotoxicity; assay type: cell-based; details: PC-3, Prostate
Method: as §1, §2, §3

[28] = test system: MCF7; test: NCI human cell line panel cytotoxicity; assay type: cell-based; details: Breast
Method: as §1, §2, §3

[29] = test system: A2780 human ovarian carcinoma cell line; details: cited from earlier work
[30] = test system: doxorubicin-resistant and cisplatin-resistant tumor cell lines; details: cited from earlier work
[31] = test system: human osteosarcoma cell line (U-2 OS); test: Cell cycle events by flow cytometry and timelapse, cyclin B1-GFP reporter; assay type: cell-based; details: U2-OS
Method: The U2 OS cells were stably transfected with a Green Fluorescent Protein tagged Cyclin B1 reporter and maintained at 37° C. and 5% CO2 in McCoys 5A modified medium (Sigma) supplemented with 2 mM glutamine, 100 units/ml penicillin, 100 μg/ml streptomycin, 10% fetal calf serum and 1000 μg/ml geneticin. Appropriate dilutions were added to the wells to obtain treatment regimes of 0, 10 and 100 nM of the experimental compound.
The cells were plated in a 6 well plate (density ˜15-20%). Each experiment consisted of the paired drug treatment at the appropriate dose added to the cells and the plate was placed on a stage of an inverted microscope in a sealed environment (37° C./humidified 5% CO2), and the entire apparatus was situated on a vibration-free table. Three fields were selected per well to triplicate the sampling for each experiment. Images at 10× magnification and were taken every 15 minutes over 3 days using a Cohu cooled CCD camera and the programme AQM Advance 6 to store the images. The images were viewed using the Metamorph programme.
Experimental data derived from the timelapse were analyzed by comparing the morphology of the cells and the relative growth rates per treatment regimen. This was achieved by counting the number of live cells per field every 12 hours (since a normal cell has a generation time of 24 hours) and plotting the data into relative growth curves. The initial rate of growth (between time points 0-12 and 12-24) was then calculated.
Samples by flow cytometry. U-2 OS cells were treated with the compound in a 6 well plate in an incubator over 2 days. Cells were then extracted from the plate, and Draq5 added to stain the DNA before they were analyzed using a Becton Dickinson FACS Vantage flow cytometer. The flow data was gated for intact cells, and the DRAQ5 levels (indicator of DNA content) were extracted.
DNA content and Cyclin B1 expression were measured using flow cytometry and a p53 functional human osteosarcoma cell line (U2-OS) as described above.

[32] = test system: NCI human cell lines; test: NCI human cell line panel, mean over cell lines; assay type: cell-based; details: mean against the NCI human cell lines (28 tested)
Method: as §1, §2, §3

CN(C)CCNc1ccc(NCCN(CCCl)CCCl)c2c1C(=O)c1c(O)ccc(O)c1C2=O [Compound IV]
IC50 ([1]; read-out: IC50 nM): 54 nM
IC50 ([1]; read-out: IC50): 53.7 nM
IC50 ([1]; read-out: Log IC50 (converted)): 53.7 nM
IC50 ([2]; read-out: IC50 nM): < 10 nM
IC50 ([2]; read-out: IC50): < 10 nM
IC50 ([2]; read-out: Log IC50 (converted)): ≤ 10 nM
IC50 ([3]; read-out: IC50 nM): < 10 nM
IC50 ([3]; read-out: IC50): < 10 nM
IC50 ([3]; read-out: Log IC50 (converted)): ≤ 10 nM
IC50 ([4]; read-out: IC50 nM): < 10 nM
IC50 ([4]; read-out: IC50): < 10 nM
IC50 ([4]; read-out: Log IC50 (converted)): ≤ 10 nM
IC50 ([5]; read-out: IC50 nM): 138 nM
IC50 ([5]; read-out: IC50): 138 nM
IC50 ([5]; read-out: Log IC50 (converted)): 138 nM
IC50 ([6]; read-out: IC50 nM): 27 nM
IC50 ([6]; read-out: IC50): 26.9 nM
IC50 ([6]; read-out: Log IC50 (converted)): 26.9 nM
IC50 ([7]; read-out: IC50 nM): 525 nM
IC50 ([7]; read-out: IC50): 525 nM
IC50 ([7]; read-out: Log IC50 (converted)): 525 nM
IC50 ([8]; read-out: IC50 nM): 71 nM
IC50 ([8]; read-out: IC50): 70.8 nM
IC50 ([8]; read-out: Log IC50 (converted)): 70.8 nM
IC50 ([9]; read-out: IC50 nM): < 10 nM
IC50 ([9]; read-out: IC50): < 10 nM
IC50 ([9]; read-out: Log IC50 (converted)): ≤ 10 nM
IC50 ([10]; read-out: IC50 nM): < 10 nM
IC50 ([10]; read-out: IC50): < 10 nM
IC50 ([10]; read-out: Log IC50 (converted)): ≤ 10 nM
IC50 ([11]; read-out: IC50 nM): < 10 nM
IC50 ([11]; read-out: IC50): < 10 nM
IC50 ([11]; read-out: Log IC50 (converted)): ≤ 10 nM
IC50 ([12]; read-out: IC50 nM): 759 nM
IC50 ([12]; read-out: IC50): 759 nM
IC50 ([12]; read-out: Log IC50 (converted)): 759 nM
IC50 ([13]; read-out: IC50 nM): 2040 nM
IC50 ([13]; read-out: IC50): 2040 nM
IC50 ([13]; read-out: Log IC50 (converted)): 2040 nM
IC50 ([14]; read-out: IC50 nM): 100 nM
IC50 ([14]; read-out: IC50): 100 nM
IC50 ([14]; read-out: Log IC50 (converted)): 100 nM
IC50 ([15]; read-out: IC50 nM): 21 nM
IC50 ([15]; read-out: IC50): 20.9 nM
IC50 ([15]; read-out: Log IC50 (converted)): 20.9 nM
IC50 ([16]; read-out: IC50 nM): < 10 nM
IC50 ([16]; read-out: IC50): < 10 nM
IC50 ([16]; read-out: Log IC50 (converted)): ≤ 10 nM
IC50 ([17]; read-out: IC50 nM): 19 nM
IC50 ([17]; read-out: IC50): 19.1 nM
IC50 ([17]; read-out: Log IC50 (converted)): 19.1 nM
IC50 ([18]; read-out: IC50 nM): < 10 nM
IC50 ([18]; read-out: IC50): < 10 nM
IC50 ([18]; read-out: Log IC50 (converted)): ≤ 10 nM
IC50 ([19]; read-out: IC50 nM): 295 nM
IC50 ([19]; read-out: IC50): 295 nM
IC50 ([19]; read-out: Log IC50 (converted)): 295 nM
IC50 ([20]; read-out: IC50 nM): 50 nM
IC50 ([20]; read-out: IC50): 50.1 nM
IC50 ([20]; read-out: Log IC50 (converted)): 50.1 nM
IC50 ([21]; read-out: IC50 nM): 27 nM
IC50 ([21]; read-out: IC50): 26.9 nM
IC50 ([21]; read-out: Log IC50 (converted)): 26.9 nM
IC50 ([22]; read-out: IC50 nM): 407 nM
IC50 ([22]; read-out: IC50): 407 nM
IC50 ([22]; read-out: Log IC50 (converted)): 407 nM
IC50 ([23]; read-out: IC50 nM): < 10 nM
IC50 ([23]; read-out: IC50): < 10 nM
IC50 ([23]; read-out: Log IC50 (converted)): ≤ 10 nM
IC50 ([24]; read-out: IC50 nM): 1860 nM
IC50 ([24]; read-out: IC50): 1860 nM
IC50 ([24]; read-out: Log IC50 (converted)): 1860 nM
IC50 ([25]; read-out: IC50 nM): 219 nM
IC50 ([25]; read-out: IC50): 219 nM
IC50 ([25]; read-out: Log IC50 (converted)): 219 nM
IC50 ([26]; read-out: IC50 nM): < 10 nM
IC50 ([26]; read-out: IC50): < 10 nM
IC50 ([26]; read-out: Log IC50 (converted)): ≤ 10 nM
IC50 ([27]; read-out: IC50 nM): 50 nM
IC50 ([27]; read-out: IC50): 50.1 nM
IC50 ([27]; read-out: Log IC50 (converted)): 50.1 nM
IC50 ([28]; read-out: IC50 nM): < 10 nM
IC50 ([28]; read-out: IC50): < 10 nM
IC50 ([28]; read-out: Log IC50 (converted)): ≤ 10 nM
cytotoxicity [29]: potent cytotoxicity
cellular drug resistance ([30]; Pors et al., 2003): very low resistance
cytotoxicity against resistant cell lines ([30]; doxorubicin-resistant and cisplatin-resistant tumor cell lines, in vitro): maintained potent cytotoxicity
resistance relative to doxorubicin ([30]; fold less resistant, Pors et al., 2003): 250 fold
resistance relative to the other chloroethylaminoanthraquinones tested ([30]; fold less, Pors et al., 2003): 20-150 fold
G2 arrest [31]: limited expression of G2 arrest
polyploidy on escape from G2 arrest (B1 cyclin tracking) [31]: forced some cells to enter polyploidy via an aberrant mitosis
pan-cell cycle progression and mitotic commitment ([31]; compared to untreated cells): slowed pan-cell cycle progression and mitotic commitment
induction of apoptosis ([31]; immediate (<24 h)): without any immediate (<24 h) induction of apoptosis
IC50 [32]: 49 nM
